Measurements: patent US20250171437A1 (Agios Pharmaceuticals,Inc., priority 2022, published 2025)

Target: T1, human PAH with the R408W mutation (A375 R408W cells) (Homo sapiens, UniProt P00439, R408W)
T1 construct: expressed in transfected cells
T1 sequence (P00439 1-452 R408W): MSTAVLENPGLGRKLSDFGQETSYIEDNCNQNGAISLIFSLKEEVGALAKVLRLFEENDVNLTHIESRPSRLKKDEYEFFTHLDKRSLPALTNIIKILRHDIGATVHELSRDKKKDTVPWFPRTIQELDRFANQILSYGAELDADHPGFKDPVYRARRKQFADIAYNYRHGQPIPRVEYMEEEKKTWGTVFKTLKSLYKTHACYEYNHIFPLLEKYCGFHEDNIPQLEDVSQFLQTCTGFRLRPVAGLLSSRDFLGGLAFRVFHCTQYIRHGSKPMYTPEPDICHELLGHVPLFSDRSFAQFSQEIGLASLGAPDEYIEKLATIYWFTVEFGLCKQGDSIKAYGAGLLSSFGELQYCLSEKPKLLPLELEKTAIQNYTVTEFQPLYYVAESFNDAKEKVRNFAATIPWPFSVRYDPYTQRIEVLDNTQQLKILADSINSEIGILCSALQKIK
Assay: Cell Based Phenylalanine Flux Assay
Conditions: A375 R408W cells; 24 hrs with compound, then 20 μM sepiapterin and 800 μM 13C9,15N-Phenylalanine for 4 hours; 13C-Tyrosine by LC-MS; average where tested multiple times
In short: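 Puromycin-selected A375 line, lentiviral hPAH R408W; cmpd 24 h, 37 °C, 5% CO2, 0.5% DMSO; then 20 μM sepiapterin + 800 μM 13C9,15N-Phe, 4 h; media extracted in 80% MeCN; 13C-Tyr by LC-MS; AC50 from 10-pt curves.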

Row | SMILES | AC50 [nM]
1 | CC(C)(O)c1nc(C(F)F)c(C(=O)N2CCc3[nH]cnc3[C@@H]2c2nc3cccc(OC(F)(F)F)c3o2)o1 [Example 530, (R)-(4-(difluoromethyl)-2-(2-hydroxypropan-2-yl)oxazol-5-yl)(4-(7-(trifluoromethoxy)benzo[d]oxazol-2-yl)-6,7-dihydro-1H-imidazo[4,5-c]pyridin-5(4H)-yl)methanone] | 500 to 1000
2 | O=C(c1ocnc1C(F)F)N1CCc2[nH]cnc2[C@@H]1c1nc2cccc(OC(F)(F)F)c2o1 [Example 531, (R)-(4-(difluoromethyl)oxazol-5-yl)(4-(7-(trifluoromethoxy)benzo[d]oxazol-2-yl)-6,7-dihydro-1H-imidazo[4,5-c]pyridin-5(4H)-yl)methanone] | ≤ 500
3 | O=C(c1ocnc1C(F)F)N1CCc2[nH]cnc2[C@H]1c1nc2cccc(OC(F)(F)F)c2o1 [Example 532, (S)-(4-(difluoromethyl)oxazol-5-yl)(4-(7-(trifluoromethoxy)benzo[d]oxazol-2-yl)-6,7-dihydro-1H-imidazo[4,5-c]pyridin-5(4H)-yl)methanone] | ≤ 500
4 | CC(C)(O)c1nc(C(F)F)c(C(=O)N2CCc3[nH]cnc3[C@H]2c2nc3c(OC(F)(F)F)cccc3o2)o1 [Example 533, (S)-(4-(difluoromethyl)-2-(2-hydroxypropan-2-yl)oxazol-5-yl)(4-(4-(trifluoromethoxy)benzo[d]oxazol-2-yl)-6,7-dihydro-1H-imidazo[4,5-c]pyridin-5(4H)-yl)methanone] | ≤ 500
5 | CC(C)(O)c1nc(C(F)F)c(C(=O)N2CCc3[nH]cnc3[C@@H]2c2nc3c(OC(F)(F)F)cccc3o2)o1 [Example 534, (R)-(4-(difluoromethyl)-2-(2-hydroxypropan-2-yl)oxazol-5-yl)(4-(4-(trifluoromethoxy)benzo[d]oxazol-2-yl)-6,7-dihydro-1H-imidazo[4,5-c]pyridin-5(4H)-yl)methanone] | ≤ 500
6 | O=C(c1ocnc1C(F)F)N1CCc2[nH]cnc2[C@@H]1c1nc2c(OC(F)(F)F)cccc2o1 [Example 535, (R)-(4-(difluoromethyl)oxazol-5-yl)(4-(4-(trifluoromethoxy)benzo[d]oxazol-2-yl)-6,7-dihydro-1H-imidazo[4,5-c]pyridin-5(4H)-yl)methanone] | ≤ 500
7 | O=C(c1ocnc1C(F)F)N1CCc2[nH]cnc2[C@H]1c1nc2c(OC(F)(F)F)cccc2o1 [Example 536, (S)-(4-(difluoromethyl)oxazol-5-yl)(4-(4-(trifluoromethoxy)benzo[d]oxazol-2-yl)-6,7-dihydro-1H-imidazo[4,5-c]pyridin-5(4H)-yl)methanone] | ≤ 500
8 | Cc1ccc2c(C(=O)N3CCc4[nH]cnc4[C@H]3c3nc4c(F)cccc4o3)cnn2c1 [Example 537, (S)-(4-(4-fluorobenzo[d]oxazol-2-yl)-6,7-dihydro-1H-imidazo[4,5-c]pyridin-5(4H)-yl)(6-methylpyrazolo[1,5-a]pyridin-3-yl)methanone] | ≤ 500
9 | Cc1ccc2c(C(=O)N3CCc4[nH]cnc4[C@@H]3c3nc4c(F)cccc4o3)cnn2c1 [Example 538, (R)-(4-(4-fluorobenzo[d]oxazol-2-yl)-6,7-dihydro-1H-imidazo[4,5-c]pyridin-5(4H)-yl)(6-methylpyrazolo[1,5-a]pyridin-3-yl)methanone] | 1000 to 5000
10 | COc1ccc2c(C(=O)N3CCc4[nH]cnc4[C@H]3c3nc4c(F)cccc4o3)cnn2c1 [Example 539, (S)-(4-(4-fluorobenzo[d]oxazol-2-yl)-6,7-dihydro-1H-imidazo[4,5-c]pyridin-5(4H)-yl)(6-methoxypyrazolo[1,5-a]pyridin-3-yl)methanone] | ≤ 500
11 | COc1ccc2c(C(=O)N3CCc4[nH]cnc4[C@@H]3c3nc4c(F)cccc4o3)cnn2c1 [Example 540, (R)-(4-(4-fluorobenzo[d]oxazol-2-yl)-6,7-dihydro-1H-imidazo[4,5-c]pyridin-5(4H)-yl)(6-methoxypyrazolo[1,5-a]pyridin-3-yl)methanone] | 1000 to 5000
12 | Cn1cc(-c2ccc3c(C(=O)N4CCc5[nH]cnc5[C@H]4c4nc5c(F)cccc5o4)cnn3c2)cn1 [Example 541, (S)-(4-(4-fluorobenzo[d]oxazol-2-yl)-6,7-dihydro-1H-imidazo[4,5-c]pyridin-5(4H)-yl)(6-(1-methyl-1H-pyrazol-4-yl)pyrazolo[1,5-a]pyridin-3-yl)methanone] | ≤ 500
13 | Cn1cc(-c2ccc3c(C(=O)N4CCc5[nH]cnc5[C@@H]4c4nc5c(F)cccc5o4)cnn3c2)cn1 [Example 542, (R)-(4-(4-fluorobenzo[d]oxazol-2-yl)-6,7-dihydro-1H-imidazo[4,5-c]pyridin-5(4H)-yl)(6-(1-methyl-1H-pyrazol-4-yl)pyrazolo[1,5-a]pyridin-3-yl)methanone] | 1000 to 5000
14 | O=C(c1cnn2cc(-c3ccccn3)ccc12)N1CCc2[nH]cnc2[C@H]1c1nc2c(F)cccc2o1 [Example 543, (S)-(4-(4-fluorobenzo[d]oxazol-2-yl)-6,7-dihydro-1H-imidazo[4,5-c]pyridin-5(4H)-yl)(6-(pyridin-2-yl)pyrazolo[1,5-a]pyridin-3-yl)methanone] | ≤ 500
15 | O=C(c1cnn2cc(-c3ccccn3)ccc12)N1CCc2[nH]cnc2[C@@H]1c1nc2c(F)cccc2o1 [Example 544, (R)-(4-(4-fluorobenzo[d]oxazol-2-yl)-6,7-dihydro-1H-imidazo[4,5-c]pyridin-5(4H)-yl)(6-(pyridin-2-yl)pyrazolo[1,5-a]pyridin-3-yl)methanone] | 1000 to 5000
16 | O=C(c1nnc(-c2ccccn2)o1)N1CCc2[nH]cnc2[C@@H]1c1nc2ccc(F)c(F)c2o1 [Example 545, (R)-(4-(6,7-difluorobenzo[d]oxazol-2-yl)-6,7-dihydro-1H-imidazo[4,5-c]pyridin-5(4H)-yl)(5-(pyridin-2-yl)-1,3,4-oxadiazol-2-yl)methanone] | 1000 to 5000
17 | O=C(c1nnc(-c2ccccn2)o1)N1CCc2[nH]cnc2[C@H]1c1nc2ccc(F)c(F)c2o1 [Example 546, (S)-(4-(6,7-difluorobenzo[d]oxazol-2-yl)-6,7-dihydro-1H-imidazo[4,5-c]pyridin-5(4H)-yl)(5-(pyridin-2-yl)-1,3,4-oxadiazol-2-yl)methanone] | 500 to 1000

Next, values leading:

Row | AC50 [nM] | SMILES
18 | 500 to 1000 | O=C(c1cnco1)N1CCc2[nH]cnc2[C@H]1c1nc2ccccc2o1 [Example 547, (S)-(4-(benzo[d]oxazol-2-yl)-6,7-dihydro-1H-imidazo[4,5-c]pyridin-5(4H)-yl)(oxazol-5-yl)methanone]
19 | 1000 to 5000 | O=C(c1cnco1)N1CCc2[nH]cnc2[C@@H]1c1nc2ccccc2o1 [Example 548, (R)-(4-(benzo[d]oxazol-2-yl)-6,7-dihydro-1H-imidazo[4,5-c]pyridin-5(4H)-yl)(oxazol-5-yl)methanone]
20 | 500 to 1000 | COc1ccc2oc([C@@H]3c4nc[nH]c4CCN3C(=O)c3nc(C(F)F)nn3C)nc2c1 [Example 549, (S)-(3-(difluoromethyl)-1-methyl-1H-1,2,4-triazol-5-yl)(4-(5-methoxybenzo[d]oxazol-2-yl)-6,7-dihydro-1H-imidazo[4,5-c]pyridin-5(4H)-yl)methanone]
21 | 1000 to 5000 | COc1ccc2oc([C@H]3c4nc[nH]c4CCN3C(=O)c3nc(C(F)F)nn3C)nc2c1 [Example 550, (R)-(3-(difluoromethyl)-1-methyl-1H-1,2,4-triazol-5-yl)(4-(5-methoxybenzo[d]oxazol-2-yl)-6,7-dihydro-1H-imidazo[4,5-c]pyridin-5(4H)-yl)methanone]
22 | 500 to 1000 | COc1ccc2oc([C@@H]3c4nc[nH]c4CCN3C(=O)c3ccnn3C(F)F)nc2c1 [Example 551, (S)-(1-(difluoromethyl)-1H-pyrazol-5-yl)(4-(5-methoxybenzo[d]oxazol-2-yl)-6,7-dihydro-1H-imidazo[4,5-c]pyridin-5(4H)-yl)methanone]
23 | 1000 to 5000 | COc1ccc2oc([C@H]3c4nc[nH]c4CCN3C(=O)c3ccnn3C(F)F)nc2c1 [Example 552, (R)-(1-(difluoromethyl)-1H-pyrazol-5-yl)(4-(5-methoxybenzo[d]oxazol-2-yl)-6,7-dihydro-1H-imidazo[4,5-c]pyridin-5(4H)-yl)methanone]
24 | 500 to 1000 | COc1ccc2oc([C@@H]3c4nc[nH]c4CCN3C(=O)c3nnc(-c4cnn(C)c4)o3)nc2c1 [Example 553, (S)-(4-(5-methoxybenzo[d]oxazol-2-yl)-6,7-dihydro-1H-imidazo[4,5-c]pyridin-5(4H)-yl)(5-(1-methyl-1H-pyrazol-4-yl)-1,3,4-oxadiazol-2-yl)methanone]
25 | 1000 to 5000 | COc1ccc2oc([C@H]3c4nc[nH]c4CCN3C(=O)c3nnc(-c4cnn(C)c4)o3)nc2c1 [Example 554, (R)-(4-(5-methoxybenzo[d]oxazol-2-yl)-6,7-dihydro-1H-imidazo[4,5-c]pyridin-5(4H)-yl)(5-(1-methyl-1H-pyrazol-4-yl)-1,3,4-oxadiazol-2-yl)methanone]
26 | 500 to 1000 | COc1ccc2oc([C@@H]3c4nc[nH]c4CCN3C(=O)c3nnc(-c4ccccn4)o3)nc2c1 [Example 555, (S)-(4-(5-methoxybenzo[d]oxazol-2-yl)-6,7-dihydro-1H-imidazo[4,5-c]pyridin-5(4H)-yl)(5-(pyridin-2-yl)-1,3,4-oxadiazol-2-yl)methanone]
